Test results taken from US9642854B2, “Flavanoid compounds and process for preparation thereof” (Council of Scientific & Industrial Research, priority 2009, dated 2017).
In brackets after ≈: the same amount, converted by molar mass. Like-named read-outs stand apart in the source and are kept apart here.

Columns and labels:
H. pylori ATCC 43504 = assay: Short time kill kinetics in shake culture at different pH; type: cell-based, Helicobacter pylori
[1] = target: T1, pig gastric H^+,K^+-ATPase (Sus scrofa, UniProt P19156); assay: Gastric H+,K+-ATPase activity assay; type: biochemical
T1 construct: tubulovesicular and apical membranes, isolated from freshly slaughtered pig gastric mucosa; from tissue; host or cells: pig gastric mucosa (membrane fraction by density gradient centrifugation)
Description: The data are averages of 3-4 determinations each carried out in triplicate. The assay system contained 10 mM PIPES-Tris (pH 6.8), 2 mM each of ATP and MgCl2 with or without 10 mM KCl and about […] in a final volume of 1 mL. Both blank and experimental tubes with or without CPP-1 at different concentrations were preincubated with otherwise complete assay mixture at 37° C. for 10 min before initiating the reaction with the substrate ATP. K^+-stimulated activity referred to as H^+,K^+-ATPase activity, was calculated as the difference between the activity in presence of Mg^2+ plus K^+ and the basal activity (Mg^2+-ATPase) in presence of Mg2^+ alone. The specific activity of H^+,K^+-ATPase in control sets was in the range of 40-50 μmole Pi/mg protein/h.
The effect of CPP-1 on gastric H^+K^+-ATPase was investigated. Isolation of pig gastric mucosal membranes, rich in H^+,K^+-ATPase activity, was carried out by density gradient centrifugation technique (Ray, 1978). The enzyme assay system contained 10 mM PIPES-Tris (pH 6.8), 2 mM each of ATP and MgCl with or without 10 mM KCl and about […] in a final volume of 1 mL. Both blank and experimental tubes with or without CPP-1 at different concentrations were preincubated with otherwise complete assay mixture at 37° C. for 10 min before initiating the reaction with the substrate ATP. After appropriate time of incubation with ATP at 37° C., the reaction was terminated with the addition of 1 mL of ice-cold TCA (14%, w/v). The liberated inorganic phosphate (Pi) was estimated essentially by the method of Sanui (1974). K^+-stimulated activity referred to as H^+,K^+-ATPase activity, was calculated as the difference between the activity in presence of Mg^2+ plus K^+ and the basal activity (Mg^2+-ATPase) in presence of Mg^2+ alone. The specific activity of H^+,K^+-ATPase was expressed as micromoles of Pi liberated per hour per milligram protein. The data are averages of 3-4 determinations each carried out in triplicate. The specific activity of H^+,K^+-ATPase in control sets was in the range of 40-50 μmole Pi/mg protein/h.

H. pylori [2] = assay: Acid stability study (pH ~2.0, 2 h, then MIC/MBC by microbroth dilution); type: cell-based, Helicobacter pylori; settings: for MBC / MIC: Helicobacter pylori
Description: Details of experimental protocol are described under Experiment 7. MIC/MBC values were determined by microbroth dilution assay.
A 100 μL stock of CPP-1, NMC-1, NMC-2 and CPP-3 (1-2 mg/mL) was treated with 20-30 μL of 0.12 NHCl to bring the pH of the solution to ^˜2.0, and kept at 25° C. for 2 h (Funatogawa et al., 2004). Such acid-treated samples were then serially diluted (2 fold) with medium in 96-well microtitre plates to determine the MIC and the MBC values by microbroth dilution assay as detailed under Experiment 3.

H. pylori [3] = assay: Anti H. pylori screening by disc diffusion susceptibility assay; type: cell-based, Helicobacter pylori; settings: 72 h; for Inhibition zone diameter (score): 100 and 200 mg/disc (so in the source)
Method in brief: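 Clinical strains HP001, HP002 and ATCC 700392, 43504, 49503 (10^8 CFU/mL) spread on supplemented BHI agar; 5 mm discs loaded with 100 and 200 […] compound in ethanol or DMSO. Zones read after 72 h microaerophilic growth at 37 °C; scored + (10-20 mm), ++ (20-30 mm), +++ (>30 mm), Nil <10 mm.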

T1 sequence (P19156 2-1034 limits assumed): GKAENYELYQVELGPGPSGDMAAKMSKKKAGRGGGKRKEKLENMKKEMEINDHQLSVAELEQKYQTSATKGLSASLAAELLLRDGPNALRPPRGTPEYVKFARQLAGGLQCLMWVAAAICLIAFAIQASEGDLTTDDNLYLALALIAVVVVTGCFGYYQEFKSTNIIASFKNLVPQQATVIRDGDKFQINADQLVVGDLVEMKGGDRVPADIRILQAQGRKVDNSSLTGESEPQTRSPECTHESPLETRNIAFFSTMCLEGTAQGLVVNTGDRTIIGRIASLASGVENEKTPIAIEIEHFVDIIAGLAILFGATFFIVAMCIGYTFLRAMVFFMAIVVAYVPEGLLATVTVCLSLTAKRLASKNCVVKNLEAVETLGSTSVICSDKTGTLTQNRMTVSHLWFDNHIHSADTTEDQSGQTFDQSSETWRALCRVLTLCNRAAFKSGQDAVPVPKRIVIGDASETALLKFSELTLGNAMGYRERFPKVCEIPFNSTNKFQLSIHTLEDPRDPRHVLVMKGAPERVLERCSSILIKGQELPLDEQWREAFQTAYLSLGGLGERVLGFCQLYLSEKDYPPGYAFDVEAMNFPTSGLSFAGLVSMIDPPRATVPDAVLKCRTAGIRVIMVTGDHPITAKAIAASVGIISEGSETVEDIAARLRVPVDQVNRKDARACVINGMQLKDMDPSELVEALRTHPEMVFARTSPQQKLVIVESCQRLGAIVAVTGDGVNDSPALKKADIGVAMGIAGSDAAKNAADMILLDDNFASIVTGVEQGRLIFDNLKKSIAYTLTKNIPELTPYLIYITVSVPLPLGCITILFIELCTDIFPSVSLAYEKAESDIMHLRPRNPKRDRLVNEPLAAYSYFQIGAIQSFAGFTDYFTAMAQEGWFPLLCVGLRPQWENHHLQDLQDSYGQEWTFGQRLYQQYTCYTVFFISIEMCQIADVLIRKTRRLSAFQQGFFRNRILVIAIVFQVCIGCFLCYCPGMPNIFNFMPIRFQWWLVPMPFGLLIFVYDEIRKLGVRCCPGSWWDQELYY
T1 sequence (P18434 whole entry partner): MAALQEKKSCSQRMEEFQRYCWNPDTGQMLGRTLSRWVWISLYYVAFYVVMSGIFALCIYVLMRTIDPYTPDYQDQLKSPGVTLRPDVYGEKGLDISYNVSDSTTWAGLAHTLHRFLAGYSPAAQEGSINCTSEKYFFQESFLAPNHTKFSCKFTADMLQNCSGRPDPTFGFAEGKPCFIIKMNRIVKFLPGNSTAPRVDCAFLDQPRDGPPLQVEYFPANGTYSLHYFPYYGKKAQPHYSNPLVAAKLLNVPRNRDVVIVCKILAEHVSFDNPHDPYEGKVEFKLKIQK

## O=c1cc(-c2ccccc2)oc2cc(OCCCCCCN3CCCCC3)cc(O)c12 [CPP-1, 5-Hydroxy-2-phenyl-7-(6-piperidin-1-yl-hexyloxy)-chromen-4-one]
H. pylori ATCC 43504; 50 mg/mL (so in the source), pH 4.0, 5.0 and 6.0, short exposure
  decrease of growth: 3 log
H. pylori ATCC 43504; 50 mg/mL (so in the source), pH 7.2
  survival of bacteria: the bacteria survived
H. pylori ATCC 43504; 100 and 150 mg/mL (so in the source)
  rate of killing as function of pH: the rate of killing was found to increase as the pH of the media raised
[1]
  IC50: 23.7 µM
[1]; 1 mg/assay (so in the source)
  Percent inhibition of H^+, K^+-ATPase activity: 20%
[1]; 5 mg/assay (so in the source)
  Percent inhibition of H^+, K^+-ATPase activity: 30%
[1]; dose range of 1-10 μg/assay
  inhibition of H^+,K^+-ATPase: 10-50%
H. pylori [2]; 2 h, pH ~2.0, 2 h, 25° C., 43504, read-out: MBC, Acid treated
  MBC: 25 mg/mL (≈ 59.3 mM)
H. pylori [2]; 2 h, pH ~2.0, 2 h, 25° C., 43504, read-out: MIC, Acid treated
  MIC: 12.5 mg/mL (≈ 29.7 mM)
H. pylori [2]; 2 h, pH ~2.0, 2 h, 25° C., HP001, read-out: MBC, Acid treated
  MBC: < 12.5 mg/mL
H. pylori [2]; 2 h, pH ~2.0, 2 h, 25° C., HP001, read-out: MIC, Acid treated
  MIC: 12.5 mg/mL (≈ 29.7 mM)
H. pylori [2]; not acid treated, 43504, read-out: MBC, Control
  MBC: < 6.25 mg/mL
H. pylori [2]; not acid treated, 43504, read-out: MIC, Control
  MIC: 6.25 mg/mL (≈ 14.8 mM)
H. pylori [2]; not acid treated, HP001, read-out: MBC, Control
  MBC: 12.5 mg/mL (≈ 29.7 mM)
H. pylori [2]; not acid treated, HP001, read-out: MIC, Control
  MIC: 6.25 mg/mL (≈ 14.8 mM)
H. pylori [2]; pH 2.0 for 2 hours
  increase in MIC and MBC values upon exposure to acid: about 2 fold
H. pylori [3]; ATCC standard strain 43504
  Inhibition zone diameter (score): ++ (20-30 mm as ^++)
H. pylori [3]; ATCC standard strain 49503
  Inhibition zone diameter (score): +++ (that of >30 mm as ^+++)
H. pylori [3]; ATCC standard strain 700392
  Inhibition zone diameter (score): ++ (20-30 mm as ^++)
H. pylori [3]; Helicobacter pylori, 100 and 200 μg/disc, majority of the strains, read-out: Activity class by inhibition zone diameter
  zone of inhibition at 100 µg/disc: > 30 mm
H. pylori [3]; clinical strain HP001
  Inhibition zone diameter (score): ++ (20-30 mm as ^++)
H. pylori [3]; clinical strain HP002
  Inhibition zone diameter (score): +++ (that of >30 mm as ^+++)
